The target in one assay is T1, HDAC2 (Homo sapiens, UniProt Q92769).
T1 construct: purchased BPS Bioscience (San Diego, CA), contract assay service
The assay can be described thus: Biochemical HDAC assay (BPS Bioscience), HDAC2. The following applies: 25 µM.

The subject of assay [1] is AMPAR currents in primary cortical neurons. Description: Single-cell electrophysiology of AMPA-mediated mEPSCs. Type of assay: cell-based, mouse. On the procedure:
Primary cortical neurons cultured on glass coverslips were recorded at DIV15 in voltage clamp mode. The external solution was kept at 25 °C and contained 120 mM NaCl, 2 mM KCl, 1 mM MgCl2, 1.5 mM CaCl2, 10 mM 4-(2-hydroxyethyl)-1-piperazineethane-sulfonic acid (HEPES) and 15 mM glucose. […]. Patch recording pipettes (3–6 MΩ) were filled with an internal solution (pH 7.2). The internal solution contained 120 mM K-gluconate, 6 mM NaCl, 1 mM MgCl2, 10 mM HEPES, and 0.2 mM ethylene glycol tetraacetic acid. Data were acquired using an HEKA EPC-10 patch-clamp amplifier interfaced with PatchMaster software and analyzed using FitMaster software (HEKA Elektronik, Holliston, MA) and MiniAnalysis (Synaptosoft, Fort Lee, NJ). Miniature EPSCs were recorded for a minimum of 2 min at a holding potential of −80 mV. Analysis of synaptic event data was performed using MiniAnalysis software with event detection threshold set at maximum root mean squared noise level (5 pA). Recordings of synaptic events were assessed for frequency (Hz) and mean amplitude (pA).

The next assay addresses T2, HDAC8 (Homo sapiens, UniProt Q9BY41).
T2 construct: purchased BPS Bioscience (San Diego, CA), contract assay service
Description: Biochemical HDAC assay (BPS Bioscience), HDAC8. The following applies: 25 µM.

In the next assay the test system is Arc protein. Description: Western blot of total Arc protein in primary cortical neurons. Type of assay: cell-based, mouse. Conditions: BDNF 6 h supplemented with compound.
The test system of assay [2] is acetyl-H3K9 in dentate gyrus. The assay can be described thus: Acetyl-H3K9 immunohistochemistry in dentate gyrus after intraperitoneal injection. In kind it is in vivo, mouse. Conditions: 30 mg kg−1 i.p., 3 h, home cage. On the procedure: Male mice (C57BL/6 strain) were received as 6-weeks old and habituated to their home cage as trios for 2 weeks before conducting the experiments. During the habituation time period, mice were kept on a light–dark cycle with minimal disruption and unrestricted access to food and water. On experiment day, mice from the same cage were taken and randomly subjected to intraperitoneal injection of vehicle (25% Kolliphor EL (Sigma-Aldrich, C5135), 10% DMSO) or AK-7 (30 mg kg^−1) solution and immediately placed back in their home cage or transferred to a novel environment. […]
The following approach was adopted to quantify the number of Arc-positive cell bodies and average acetyl-H3K9 immunostaining pixel intensity in dentate gyrus. First, complete dentate gyrus overlapping grayscale images of DAPI fluorescence and Arc or acetyl-H3K9 immunostaining were collected using a ×20 objective and Nikon Eclipse 90i upright microscope equipped with a motorized stage and image stitching capability. Second, the boundary of the dentate gyrus based on the DAPI fluorescence was determined in each image set with the ImageJ wand tool. Finally, this information was used for image segmentation and quantification of Arc-positive cell bodies or average acetyl-H3K9 immunostaining pixel intensity within each dentate gyrus images. […]

SMILES strings stand for the structures.

Results on one compound are retold here after paper PMC5698418 (Nature Communications, 2017).

T2 sequence (Q9BY41 whole entry): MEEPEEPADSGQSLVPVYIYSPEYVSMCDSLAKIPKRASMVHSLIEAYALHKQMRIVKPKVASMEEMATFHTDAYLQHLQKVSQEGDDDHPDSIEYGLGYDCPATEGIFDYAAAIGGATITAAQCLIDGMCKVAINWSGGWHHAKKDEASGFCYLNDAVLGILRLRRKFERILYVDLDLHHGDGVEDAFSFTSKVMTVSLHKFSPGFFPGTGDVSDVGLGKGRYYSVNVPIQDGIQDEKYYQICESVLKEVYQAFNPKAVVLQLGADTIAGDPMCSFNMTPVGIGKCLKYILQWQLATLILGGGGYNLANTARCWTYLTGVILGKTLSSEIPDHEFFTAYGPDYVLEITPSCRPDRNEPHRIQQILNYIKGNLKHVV
T1 sequence (Q92769 whole entry): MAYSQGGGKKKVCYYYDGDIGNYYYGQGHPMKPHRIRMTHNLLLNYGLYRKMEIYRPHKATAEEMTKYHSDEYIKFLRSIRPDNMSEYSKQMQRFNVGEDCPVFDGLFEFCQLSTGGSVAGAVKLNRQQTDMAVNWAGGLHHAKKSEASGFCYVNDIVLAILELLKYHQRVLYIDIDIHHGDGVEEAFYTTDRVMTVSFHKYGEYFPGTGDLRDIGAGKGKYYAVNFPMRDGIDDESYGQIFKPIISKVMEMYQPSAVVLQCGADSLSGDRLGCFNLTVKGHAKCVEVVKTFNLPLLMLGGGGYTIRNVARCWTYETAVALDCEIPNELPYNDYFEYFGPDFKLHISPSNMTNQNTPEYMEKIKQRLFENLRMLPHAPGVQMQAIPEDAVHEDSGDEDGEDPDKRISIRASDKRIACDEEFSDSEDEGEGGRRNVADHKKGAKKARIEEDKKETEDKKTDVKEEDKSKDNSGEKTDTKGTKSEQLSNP

In the case of `O=C(Nc1cccc(Br)c1)c1cccc(S(=O)(=O)N2CCCCCC2)c1` [AK-7], at HDAC2, the “inhibitory activity toward HDAC2” value is recorded as “failed to show any inhibitory activity”. Moreover, the mEPSC amplitude entry in assay [1] (AK-7 and BDNF 6 h vs BDNF alone, DIV15) was “significant decrease in the amplitude of mEPSCs”. In addition, the mEPSC frequency entry in assay [1] (untreated, BDNF alone, AK-7 plus BDNF) was “all similar”. Besides, the “inhibitory activity toward HDAC8” value on HDAC8 is “failed to show any inhibitory activity”. For the same compound, the “total Arc protein vs BDNF plus vehicle control (western blot, Arc/β-actin)” value in the assay with Arc protein is on record as “significantly more Arc protein”. Also, the “acetyl-H3K9 immunofluorescence staining intensity in dentate gyrus vs vehicle” value in assay [2] was “small but statistically significant increase”.
